Entries after “also recorded” stand apart in the source; their conditions may differ.

Holding throughout (type): cell-based
Data set [1] concerns Hh pathway. The experiment in a line: Su(fu)-/- fibroblasts assay for Hh pathway activation. As to conditions: for % Inhibition Su(fu)-/- MEFs: Gli-dependent firefly luciferase, 15 μM HPI-1, 20 μM HPI-2, 30 μM HPI-3, 30 μM HPI-4. As to the method: Su(fu)^−/− fibroblasts assay for Hh pathway activation. […] After 24 h, the cells were transfected with Fugene HD (Roche), 8xGliBS-FL (95 ng/well), phRLSV40 (5 ng/well; Promega), and pEGFP-C1 (300 ng/well as a carrier; Clontech) according to the manufacturer's protocols. […] The resulting firefly and Renilla luciferase activities were measured using a dual luciferase kit and Veritas microplate luminometer.

Data set [2] concerns the target T1, Gli2 (Mus musculus, UniProt Q0VGT2).
T1 construct: expressed in transfected cells; host or cells: NIH-3T3
The experiment in a line: Hh pathway activation mediated by overexpression of Gli2. As to conditions: for IC50: NIH-3T3 cells overexpressing Gli2, read-out: IC50 (uM) Gli2 Transfected; for Inhibition of Hh pathway activity induced by Gli2 overexpression: NIH-3T3 cells, Gli-dependent firefly luciferase. As to the method: (§1) Hh pathway activation mediated by the overexpression of Gli, Gli2, Gli2αPKA, or Gli2αGSK. […] The cells were co-transfected the following day with 220 ng/well pcDNA-derived Gli1, Gli2, or Gli2 phosphosite mutant expression vectors and 80 ng/well of a 1:15 mixture of phRLTK (Promega) and 8XGIiBS-FL. After transfection, cells were grown to confluence (approximately 48 h). The cell were then incubated for an additional 28-32 h in DMEM containing 0.5% CS, 100 U/mL penicillin, 0.1 mg/mL streptomycin, and either DMSO, 50 μM forskolin, 50 μM LY294002, or various concentrations of the HPIs. Firefly and Renilla luciferase activities were measured using a dual luciferase kit and a Veritas microplate luminometer.

Data set [3] concerns NIH-3T3 cells. The experiment in a line: Microtubule cytoskeleton staining of HPI-treated NIH-3T3 cells. As to conditions: tubulin antibody staining. As to the method: Immunostaining of FLAG-Gli lines and NIH-3T3 cells. The FLAG-Gli1-expressing or FLAG-Gli2-expressing clonal cell lines were seeded into 24-well plates (80,000 cells/well) containing poly-D-lysine-coated 12-mm glass coverslips. […] The cells were subsequently fixed in 4% paraformaldehyde for 10 min at room temperature followed by treatment with methanol at −20° C. for 2 to 5 min. The cells were washed with PBS, permeabilized with 0.2% Triton X-100 for 2 to 5 min, and then blocked with PBS containing 2% BSA for 3 h at room temperature. The coverslips were then treated with mouse anti-FLAG M2 antibody (Sigma; 1:1,000 dilution in blocking buffer) and rabbit anti-Arl13b (10) (1:1,000 dilution in blocking buffer) for 3 h at room temperature and washed 3×5 min with PBS. The coverslips were incubated next with Alexa Fluor 594-conjugated goat anti-mouse IgG and Alexa Fluor 488-conjugated donkey anti-rabbit IgG antibodies (Invitrogen; 1:1,000 dilutions in blocking buffer) for 2 h at room temperature. After washes with PBS and a 5-min incubation with 4,6-diamidino-2-phenylindole (DAPI), the samples were mounted using Prolong Gold (Invitrogen) and imaged with an upright Leica DM4500B compound microscope. In order to quantify ciliary Gli2 localization, a circular region with diameter equal to the average width of cilia as determined by the anti-Arl13b antibody staining was manually placed at the distal end of each cilium. Regions were transferred from the anti-Arl13b antibody image to the anti-FLAG antibody image, and FLAG staining intensities within those areas were assessed. Between 40 and 80 cilia were analyzed for each condition. To normalize ciliary FLAG-Gli2 levels with respect to compound-dependent changes in total FLAG-Gli2 levels, the absolute average intensities for each condition were divided by the fold change in FLAG-Gli2 levels, as determined by the quantitative immunoblotting described above. Quantification of ciliary FLAG-Gli1 levels was performed in an analogous manner. Since HPI-4 perturbs primary cilia formation, only Arl13b-positive structures that could be clearly identified as cilia were used for Gli protein quanitification in HPI-4-treated cells. To assess cytoplasmic microtubule structures in cells treated with the HPIs, NIH-3T3 cells were cultured on poly-D-lysine-coated 12-mm glass coverslip, treated with the HPIs, and fixed with 4% paraformalehyde as described above. In place of the methanol treatment, the cells were permeabilitized with PBS containing 0.1% Triton X-100 for 1 min. Washing, blocking, and antibody incubation steps were then conducted as before, using mouse anti-<-tubulin (DM1-A, Sigma, 1:2,000 in blocking buffer). Secondary antibody treatments, DAPI staining, mounting, and imaging were then conducted as described above.

In data set [4] the target is T2, Gli1 (Mus musculus, UniProt P47806).
T2 construct: expressed in transfected cells; host or cells: NIH-3T3
T2 sequence (P47806 1-1111): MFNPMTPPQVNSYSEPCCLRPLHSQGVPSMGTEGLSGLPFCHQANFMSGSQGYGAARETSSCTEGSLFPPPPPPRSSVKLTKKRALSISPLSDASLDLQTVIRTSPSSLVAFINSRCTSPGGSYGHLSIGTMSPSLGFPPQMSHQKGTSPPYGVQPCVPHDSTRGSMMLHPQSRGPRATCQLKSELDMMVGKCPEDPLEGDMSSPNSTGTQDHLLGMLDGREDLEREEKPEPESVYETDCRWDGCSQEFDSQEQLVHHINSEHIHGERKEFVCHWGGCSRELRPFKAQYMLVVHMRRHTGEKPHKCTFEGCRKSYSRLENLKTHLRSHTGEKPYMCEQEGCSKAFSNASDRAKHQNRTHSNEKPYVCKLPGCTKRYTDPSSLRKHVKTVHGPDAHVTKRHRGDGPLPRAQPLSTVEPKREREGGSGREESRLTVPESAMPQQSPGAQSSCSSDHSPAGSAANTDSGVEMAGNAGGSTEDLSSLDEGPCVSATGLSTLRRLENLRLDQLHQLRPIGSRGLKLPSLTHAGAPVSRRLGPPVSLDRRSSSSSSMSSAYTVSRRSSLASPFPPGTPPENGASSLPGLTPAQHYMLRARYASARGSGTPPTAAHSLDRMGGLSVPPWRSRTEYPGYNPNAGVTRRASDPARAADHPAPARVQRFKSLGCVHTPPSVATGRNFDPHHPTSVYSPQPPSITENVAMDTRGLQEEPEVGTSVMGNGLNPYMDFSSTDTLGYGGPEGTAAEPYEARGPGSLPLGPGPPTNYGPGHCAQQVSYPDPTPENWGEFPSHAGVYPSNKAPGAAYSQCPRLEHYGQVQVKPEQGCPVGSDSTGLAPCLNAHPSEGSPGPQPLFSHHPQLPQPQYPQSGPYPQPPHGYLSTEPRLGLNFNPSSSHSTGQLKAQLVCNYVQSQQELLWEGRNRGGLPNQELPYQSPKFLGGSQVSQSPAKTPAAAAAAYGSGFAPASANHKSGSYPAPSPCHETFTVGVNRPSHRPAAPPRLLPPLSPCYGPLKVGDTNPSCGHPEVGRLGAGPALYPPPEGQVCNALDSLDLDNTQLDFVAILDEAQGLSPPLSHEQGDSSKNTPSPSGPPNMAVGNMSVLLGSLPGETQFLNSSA
The experiment in a line: Hh pathway activation mediated by overexpression of Gli1. As to conditions: for IC50: NIH-3T3 cells overexpressing Gli1, read-out: IC50 (uM) Gli1 Transfected or Infection; for Inhibition of Hh pathway activity induced by Gli1 overexpression: NIH-3T3 cells, Gli-dependent firefly luciferase. As to the method:
as §1

T1 sequence (Q0VGT2 whole entry): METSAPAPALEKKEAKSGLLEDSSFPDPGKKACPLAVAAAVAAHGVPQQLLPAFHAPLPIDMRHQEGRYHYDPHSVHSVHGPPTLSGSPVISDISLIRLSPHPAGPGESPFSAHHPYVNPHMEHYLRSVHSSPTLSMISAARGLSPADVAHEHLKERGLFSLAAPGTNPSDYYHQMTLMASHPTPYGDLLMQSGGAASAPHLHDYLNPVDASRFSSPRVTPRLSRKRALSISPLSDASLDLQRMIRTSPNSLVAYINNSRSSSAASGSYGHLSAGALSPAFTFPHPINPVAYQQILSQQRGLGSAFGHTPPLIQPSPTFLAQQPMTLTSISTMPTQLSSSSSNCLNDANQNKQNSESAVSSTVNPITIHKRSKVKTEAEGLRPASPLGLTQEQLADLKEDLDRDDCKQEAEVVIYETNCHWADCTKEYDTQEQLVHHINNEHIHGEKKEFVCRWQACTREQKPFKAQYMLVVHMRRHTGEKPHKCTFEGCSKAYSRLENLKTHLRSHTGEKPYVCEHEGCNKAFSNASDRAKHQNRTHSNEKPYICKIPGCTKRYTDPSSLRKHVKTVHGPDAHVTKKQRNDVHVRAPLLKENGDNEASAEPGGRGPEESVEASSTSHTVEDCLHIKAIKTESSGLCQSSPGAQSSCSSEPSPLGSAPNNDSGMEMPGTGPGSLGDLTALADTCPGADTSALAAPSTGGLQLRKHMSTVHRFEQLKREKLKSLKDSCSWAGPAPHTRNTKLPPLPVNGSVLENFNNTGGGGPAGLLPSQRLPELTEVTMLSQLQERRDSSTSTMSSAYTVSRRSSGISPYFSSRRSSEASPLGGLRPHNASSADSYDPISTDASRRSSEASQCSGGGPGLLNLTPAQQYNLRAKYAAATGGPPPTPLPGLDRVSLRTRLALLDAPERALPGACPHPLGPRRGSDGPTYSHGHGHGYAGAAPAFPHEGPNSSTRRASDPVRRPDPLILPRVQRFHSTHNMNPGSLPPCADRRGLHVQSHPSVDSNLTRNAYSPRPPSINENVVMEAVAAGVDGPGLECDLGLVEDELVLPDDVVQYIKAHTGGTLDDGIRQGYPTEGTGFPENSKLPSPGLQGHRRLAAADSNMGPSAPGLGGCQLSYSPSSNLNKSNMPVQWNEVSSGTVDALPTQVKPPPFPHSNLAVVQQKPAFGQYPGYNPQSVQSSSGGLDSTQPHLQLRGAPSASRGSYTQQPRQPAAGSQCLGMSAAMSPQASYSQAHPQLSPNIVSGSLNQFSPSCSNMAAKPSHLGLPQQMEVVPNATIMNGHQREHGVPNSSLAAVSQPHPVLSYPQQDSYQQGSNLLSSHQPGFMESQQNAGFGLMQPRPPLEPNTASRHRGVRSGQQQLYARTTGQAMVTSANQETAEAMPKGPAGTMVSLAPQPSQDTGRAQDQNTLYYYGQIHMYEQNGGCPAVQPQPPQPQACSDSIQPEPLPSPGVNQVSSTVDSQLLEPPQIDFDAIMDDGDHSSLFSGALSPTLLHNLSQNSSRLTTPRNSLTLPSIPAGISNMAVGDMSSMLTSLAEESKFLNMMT

What is called IC50 is the concentration that gives 50% inhibition. Turning to `CCOC(=O)c1cn(-c2ccccc2)nc1-c1ccc(OC)c(OC)c1` [Compound 9], the “% Inhibition Su(fu)-/- MEFs” value in data set [1] (1440 min) is given as −26.9%. Besides, the IC50 in data set [2] and in data set [4] was > 30 µM throughout. The Microtubule disruption result in data set [3] is “No”.
Turning to `CCC(C)NS(=O)(=O)c1ccc(Cc2ccc(S(=O)(=O)NC(C)CC)cc2)cc1` (stereo not drawn) [Compound 5], the “% Inhibition Su(fu)-/- MEFs” value in data set [1] (1440 min) is 45.7%. Besides, the IC50 in data set [2] came out at 10 µM; in data set [4], 7 µM. Also, in data set [3], the Microtubule disruption entry is “No”.
For `O=C(Nc1nnc(S(=O)(=O)N2CCCCC2)s1)c1cccc(Br)c1` [Compound 15], the “% Inhibition Su(fu)-/- MEFs” value in data set [1] (1440 min) was determined as 89.1%. Moreover, the IC50 in data set [2] is 25 µM; in data set [4] it was 12 µM. Moreover, the Microtubule disruption entry in data set [3] is on record as “No”.
As to `CCOc1ccc(CCNc2cnnc3c(Cl)cccc23)cc1OCC` [Compound 16], the “% Inhibition Su(fu)-/- MEFs” value in data set [1] (1440 min) was 62.1%. The IC50 in data set [2] and in data set [4] was > 30 µM in each case. In addition, the Microtubule disruption result in data set [3] is reported as “No”.
Take `COCCOC(=O)C1=C(C)NC2=C(C(=O)CC(c3ccccc3OC)C2)C1c1cccc(O)c1` (mixture of isomers) [Compound 8, 4-(3-Hydroxy-phenyl)-7-(2-methoxy-phenyl)-2-methyl-5-oxo-1,4,5,6,7,8-hexahydro-quinoline-3-carboxylic acid 2-methoxy-ethyl ester]: in data set [1], the “Repression of constitutive Hh pathway activity in Su(fu)-/- fibroblasts” value is “reduce Hh pathway activity in these cells to near-basal levels” and the “% Inhibition Su(fu)-/- MEFs” value is on record as 80.2%. Besides, the “Inhibition of Hh pathway activity induced by Gli2 overexpression” value (shortened to “Inhibition … by Gli2 overexpression”) in data set [2] (listed as HPI-1) is recorded as “inhibit Gli-induced firefly luciferase expression in a dose-dependent manner; also recorded: inhibits”. Also, the Microtubule disruption result in data set [3] was “No”. The “Inhibition of Hh pathway activity induced by Gli1 overexpression” value (shortened to “Inhibition … by Gli1 overexpression”) in data set [4] (listed as HPI-1) is reported as “inhibit Gli-induced firefly luciferase expression in a dose-dependent manner; also recorded: inhibits”.
Regarding `N#CC(C(=O)c1ccc(Cl)cc1Cl)=C1NC(=O)c2ccccc2N1` [Compound 18], in data set [1] (1440 min), the “% Inhibition Su(fu)-/- MEFs” value amounted to 58.5%. Besides, the IC50 in data set [2] and in data set [4] was > 10 µM each time. For the same compound, the “Inhibition … by Gli2 overexpression” value in data set [2] (listed as HPI-4) is “no significant activity; also recorded: inactive”. In data set [3], the Microtubule disruption result is “No”. In data set [4] (listed as HPI-4), the “Inhibition … by Gli1 overexpression” value is “no significant activity; also recorded: inactive”.
As for `CCOC(=O)c1cc2c(=O)n3ccccc3nc2n(C(C)C)c1=NC(=O)c1cc(OC)cc(OC)c1` [Compound 6], the “% Inhibition Su(fu)-/- MEFs” value in data set [1] (1440 min) is 90%. Further, the IC50 in data set [2] and in data set [4] was 1.5 µM each time. For the same compound, the Microtubule disruption result in data set [3] is on record as “No”.
For `CCCCNC(=N)C(C)c1ccc(CC(C)C)cc1` (stereo not drawn) [Compound 2], the “% Inhibition Su(fu)-/- MEFs” value in data set [1] (1440 min) came out at 6.26%. The IC50 in data set [2] and in data set [4] was > 30 µM in each case. For the same compound, in data set [3], the Microtubule disruption entry was “No”.
For the compound `O=C(Nc1cccc2ccccc12)OC[C@@H]1CCCN2CCCC[C@H]12` [Compound 4], the “% Inhibition Su(fu)-/- MEFs” value in data set [1] (1440 min) is recorded as −7.55%. For the same compound, the IC50 in data set [2] and in data set [4] was > 30 µM each time. Further, the Microtubule disruption entry in data set [3] is “No”.
With `CCN1CCCC1CNC(=O)C1CCN(c2nc3c(C)cc(C)cc3s2)CC1` (stereo not drawn) [Compound 7], the “% Inhibition Su(fu)-/- MEFs” value in data set [1] (1440 min) came to 32.1%. Besides, in data set [2], the “Toxicity noted in Gli2 Transfected column” value was “(Toxic at 30)” and the IC50 was > 10 µM. Further, the Microtubule disruption result in data set [3] is listed as “No”. In data set [4], the “Toxicity noted in Gli1 Transfected or Infection column” value was “(Toxic at 30)” and the IC50 was > 10 µM.
On to `OCCNc1nc(N2CCN(c3ccccc3)CC2)nc2ccccc12` [Compound 11], for which the “% Inhibition Su(fu)-/- MEFs” value in data set [1] (1440 min) turned out to be 70.7%. The IC50 in data set [2] and in data set [4] was > 30 µM each time. The “Inhibition … by Gli2 overexpression” value in data set [2] (listed as HPI-3) was “no significant activity; also recorded: inactive”. The Microtubule disruption entry in data set [3] is given as “No”. Moreover, in data set [4] (listed as HPI-3), the “Inhibition … by Gli1 overexpression” value is “no significant activity; also recorded: inactive”.

For the origin of these results see patent US8119640B2, “Hedgehog pathway antagonists methods of use” (The Board of Trustees of the Leland Stanford Junior …, priority 2008, dated 2012).
